The values below come from patent US20210137858A1, “COMBINATION FORMULATION CONTAINING COLCHICINE FOR TREATMENT OR ENHANCING THE THERAPY OF LIVER DISEASE” (priority 2019, published 2021).

Holding throughout (type): in vivo, Wistar Rat
One experiment has as its system liver fibrosis by CCl4. In words: Hydroxyproline assay, CCl4 liver fibrosis, colchicine dose (Examples 1-2). The following applies: for Hydroxyproline: CCl4 0.4 g/kg rats. How it is done: (§1) Male Wistar Rat [about 150 g, 4 to 5-week old]
An administration plan of carbon tetrachloride (CCl4) and colchicine used in this experiment is as follows:
(1) Carbon tetrachloride: Intraperitoneal administration of 0.4 g/kg·bw, administered 3 times per week for 10 weeks • (2) Colchicine: Oral administration of 10, 50, 100 μg/kg·bw, once daily for 10 weeks
(§2) For this experiment, each group was classified as follows, and one group was used by 12 rats.
(3) CCl4-administered group [0.4 g/kg]
(4) CCl4+Colchicine [10 μg/kg]
(5) CCl4+Colchicine [50 μg/kg]
(6) CCl4+Colchicine [100 μg/kg]
The following items were measured to confirm the enhancement of the efficacy for treating liver fibrosis. Fibrosis index items were measured at 10 weeks.
(1) Fibrosis index item: hydroxyproline
Hydroxyproline assay was performed for each group to confirm the levels of […] accumulation in the liver.

The subject of experiment [1] is liver damage caused by CCl4. In words: Blood and serum levels (albumin, ALP, ALT, AST, total protein) in CCl4-administered rats (Examples 3, 4-1 to 4-3). How it is done: as §1
(§3) An administration plan of carbon tetrachloride (CCl4), silymarin, colchicine, and biphenyldimethyl dicarboxylate (DDB) used in this experiment is as follows:
(§4) (1) Carbon tetrachloride: Intraperitoneal administration of 0.4 g/kg·bw, administered 3 times per week for 10 weeks
(§5) (2) Silymarin: Oral administration of 10, 30, 50 mg/kg·bw, administered once a day for 10 weeks
(§6) (3) Colchicine: Oral administration of 10 μg/kg·bw, administered once a day for 10 weeks
(§7) (4) Biphenyldimethyl dicarboxylate (DDB): Oral administration of 10, 20, 25 mg/kg·bw, administered once a day for 10 weeks
(§8) (5) UDCA: Oral administration of 30 mg/kg·bw, administered once a day for 10 weeks
as §2
(§9) (4) CCl4+DDB [25 mg/kg] administered group
(§10) (5) CCl4+Colchicine [10 μg/kg]+DDB [25 mg/kg] administered group
(§11) (6) CCl4+Colchicine [10 μg/kg]+DDB [20 mg/kg] administered group
(§12) (7) CCl4+Colchicine [10 μg/kg]+DDB [10 mg/kg] administered group
(§13) (8) CCl4+Silymarin [50 mg/kg] administered group
(§14) (9) CCl4+Colchicine [10 μg/kg]+Silymarin [50 mg/kg] administered group
(§15) (10) CCl4+Colchicine [10 μg/kg]+Silymarin [30 mg/kg] administered group
(§16) (11) CCl4+Colchicine [10 μg/kg]+Silymarin [10 mg/kg] administered group
(12) CCl4+Colchicine [10 μg/kg]+UDCA [30 mg/kg] administered group
Serum items were measured at 4 weeks and 10 weeks, and histological items were measured at 10 weeks.
(1) Serum enzyme items: Albumin, total protein concentration, ALT, AST, ALP, etc.
(§17) At this time, the dose of colchicine administered was all the same at 10 μg/kg.
as §17, §17

The subject of experiment [2] is fibrin accumulation in the liver (CCl4). To be noted: DDB 25 mg/kg alone; CCl4 0.4 g/kg rats. How it is done: as §1, §3, §4, §5, §6, §7, §8, §2, §9, §10, §11, §12, §13, §14, §15, §16
(12) CCl4+Colchicine [10 μg/kg]+UDCA [30 mg/kg] administered group […]

Experiment [3] concerns liver tissue of CCl4-administered rats. As to the kind of experiment: Liver histopathological examination (H&E staining) (Example 4-5). On the set-up: key to Fatty necrosis / Ballooning degeneration / Fatty change / Fibrosis: 0 point for no disease (NAD); 1 point for mild symptoms; 2 points for moderate symptoms; 3 points for severe symptoms. To be noted: DDB [25 mg] alone, 10 weeks. On the procedure: as §1, §3, §4, §2
The following items were measured to confirm the enhancement of the efficacy for the treatment of liver disease (hepatitis, liver fibrosis, etc.). Serum items were measured at 4 weeks and 10 weeks, and histological items were measured at 10 weeks.
(2) Liver tissue Histology: H&E staining
In each group, when the pathological characteristics for fatty necrosis, ballooning, fatty change, and fibrosis may be identified according to severity of disease, it was evaluated by assigning 0 point for no disease (NAD), 1 point for mild symptoms, 2 points for moderate symptoms, and 3 points for severe symptoms.

Setting [4] is: DDB 25 mg/kg alone, CCl4 rats, serum.

Take `COc1cc2c(c(OC)c1OC)-c1ccc(OC)c(=O)cc1[C@@H](NC(C)=O)CC2` [Colchicine, colchicine]: the Hydroxyproline with liver fibrosis by CCl4 (colchicine 10 μg/kg oral once daily 10 weeks) is given as 320.12 ± 13.32 μg/g of liver; in the experiment on liver fibrosis by CCl4 (colchicine 50 μg/kg oral once daily 10 weeks) it was 313.33 ± 12.50 μg/g of liver; in the experiment on liver fibrosis by CCl4 (colchicine 100 μg/kg oral once daily 10 weeks) it was 302.25 ± 10.25 μg/g of liver. Besides, the “fibrin (hydroxyproline assay), in words” value with liver fibrosis by CCl4 (colchicine-administered group vs CCl4, Table 1) is given as “significant reduction effect of fibrin”.

Take `COC(=O)c1cc(OC)c2c(c1-c1c(C(=O)OC)cc(OC)c3c1OCO3)OCO2` [DDB, biphenyldimethyl dicarboxylate]: in experiment [1] (setting [4]), the ALP is 1428.90 ± 681.53 U/L, the ALT is reported as 1543.09 ± 408.03 U/L, the AST is given as 1642.24 ± 764.93 U/L and the Albumin came out at 2.13 ± 0.09 g/dL. Also, in experiment [1] (setting [4]), the Total protein stood at 5.35 ± 0.28 g/dL. Moreover, the “ALP (Alkaline phosphatase) level, in words” value in experiment [1] (vs CCl4 administration, Tables 2 and 4) is listed as “the level was increased”. In addition, the “Albumin level, in words” value in experiment [1] (vs level reduced by CCl4, Tables 2-4) was “tended to be recovered”. Also, the “Total protein, in words” value in experiment [1] (vs value reduced by CCl4, Tables 2-4) is “tended to be recovered”. Further, the Hydroxyproline in experiment [2] is on record as 317.74 ± 9.24 μg/g of liver. Moreover, in experiment [3], the Ballooning degeneration turned out to be 3, the Fatty change is 1, the Fatty necrosis worked out at 1 and the Fibrosis is on record as 2. Besides, in experiment [3], the “Total Score” value is given as 7.
